Laboratory results published in BindingDB's records for doi:10.1016/s0960-894x(03)00742-x (Keio University, 2003).

Target: alpha-L-fucosidase (Bos taurus)
Assay: Inhibitory activity against alpha-Fucosidase in bovine kidney

Compound | IC50 [µM]
C[C@@H]1CC(NCCc2ccccc2)[C@@H](O)[C@@H](O)[C@@H]1O (some centres not stated) | 7.5
CCCCCCCCCCCCN[C@H]1CC(C)[C@@H](O)C(O)[C@@H]1O (stereo partly drawn) [(1R,3R,4S)-4-Dodecylamino-6-methyl-cyclohexane-1,2,3-triol] | 1.2
